Experimental data reported in patent US11530244B2, “Cyclic polypeptides for PCSK9 inhibition” (priority 2018, dated 2022).
Starred links: 1 amine or outer side, 2 acyl side, 3 side chain; linkers in the order of their positions; H or OH if unused. Positions of bridges follow the written chain, without caps; N, C: chain ends. Non-standard residues stand in square brackets, D forms with d. Residues, ends and D or L forms follow the SMILES beside them. Groups on a side chain read outwards from the residue. *: point of attachment. NMeTrp(1-Me) = CN[C@@H](Cc1cn(C)c2ccccc12)C(=O)O; Trp(5-F) = N[C@@H](Cc1c[nH]c2ccc(F)cc12)C(=O)O; NMePhe(4-F) = CN[C@@H](Cc1ccc(F)cc1)C(=O)O; NMeW = CN[C@@H](Cc1c[nH]c2ccccc12)C(=O)O; X4 = O=C(CCSCc1cccc(CSCCN[*:1])c1)[*:2]; Phe(4-Me) = Cc1ccc(C[C@H](N)C(=O)O)cc1; γGlu = O=C(O)[C@H](CCC(=O)[*:2])N[*:1]; mXylylene = c1cc(C[*:1])cc(C[*:2])c1; NMeY = CN[C@@H](Cc1ccc(O)cc1)C(=O)O; Palmitoyl = CCCCCCCCCCCCCCCC(=O)*; hPhe = N[C@@H](CCc1ccccc1)C(=O)O; NMeD = CN[C@@H](CC(=O)O)C(=O)O; αMeP = C[C@@]1(C(=O)O)CCCN1; Dab = NCC[C@H](N)C(=O)O; Ac3c = NC1(C(=O)O)CC1; Aib = CC(C)(N)C(=O)O; Mpa = O=C(O)CCS; Sar = CNCC(=O)O

Biological target: human PCSK9 / human LDLR EGFa domain interaction (Homo sapiens (Human), UniProt Q8NBP7)
Sequence (Q8NBP7 153-692): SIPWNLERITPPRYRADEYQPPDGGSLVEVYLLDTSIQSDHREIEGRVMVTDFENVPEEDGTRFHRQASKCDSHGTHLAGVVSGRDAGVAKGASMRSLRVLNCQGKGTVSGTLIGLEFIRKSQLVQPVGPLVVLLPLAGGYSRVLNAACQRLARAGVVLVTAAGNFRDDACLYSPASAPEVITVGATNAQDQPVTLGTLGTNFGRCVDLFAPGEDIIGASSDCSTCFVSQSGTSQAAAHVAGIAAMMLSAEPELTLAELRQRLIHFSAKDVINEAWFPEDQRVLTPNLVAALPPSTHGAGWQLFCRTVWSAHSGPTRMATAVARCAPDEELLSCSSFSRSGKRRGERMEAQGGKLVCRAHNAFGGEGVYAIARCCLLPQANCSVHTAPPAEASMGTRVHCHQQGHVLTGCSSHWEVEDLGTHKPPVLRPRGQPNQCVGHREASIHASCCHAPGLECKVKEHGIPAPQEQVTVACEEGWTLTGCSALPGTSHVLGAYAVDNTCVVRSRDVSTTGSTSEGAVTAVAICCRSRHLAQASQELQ
Sequence (Q8NBP7 31-152 partner): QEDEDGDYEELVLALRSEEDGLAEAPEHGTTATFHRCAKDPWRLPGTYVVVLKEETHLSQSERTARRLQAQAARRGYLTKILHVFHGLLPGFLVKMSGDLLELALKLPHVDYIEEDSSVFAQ
Assay: TR-FRET assay of inhibition of the PCSK9-LDLR protein-protein interaction
Assay type: binding
Conditions: TR-FRET, 20 nM human PCSK9, 20 nM human LDLR EGFa domain, 2 hours room temperature; read-out: IC50
Method: A time-resolved fluorescence resonance energy (TR-FRET) assay was used to measure inhibition of the PCSK9-LDLR protein-protein interaction. Briefly, 20 nM avitag-biotinylated human PCSK9 was incubated with 20 nM his-tagged human LDLR EGFa domain in the presence of 5 nM LANCE Ulight Streptavidin (Perkin Elmer) and 5 nM europium-Anti-6×His (Perkin Elmer) for 2 hours covered at room temperature in buffer containing 50 mM HEPES, 150 mM NaCl, 5 mM CaCl2), 0.01% BSA and 0.01% Surfactant P20. Compounds were tested in dose-response and concentrations giving half-maximal inhibition calculated using a 4-parameter fit equation.

IC50 [µM] | Compound
1 to 12.1 | NCCCC[C@@H]1NC(=O)CCSCc2cccc(c2)CSC[C@@H](C(N)=O)NC(=O)[C@@H]2CCCN2C(=O)[C@H](Cc2ccc(O)cc2)NC(=O)[C@H](Cc2c[nH]cn2)NC(=O)[C@H](CC(=O)O)NC(=O)[C@H](Cc2c[nH]c3ccc(F)cc23)NC(=O)[C@H](CCc2ccccc2)NC(=O)CNC1=O [Compound 211] ([Mpa]KG[hPhe][Trp(5-F)]DHYPC-NH2; linker 1-10 via mXylylene)
21 to 50 | CC1(C)NC(=O)[C@H](Cc2c[nH]c3ccc(F)cc23)NC(=O)CNC(=O)[C@H](CCCCN)NC(=O)CCSCc2cccc(c2)CSC[C@@H](C(N)=O)NC(=O)[C@@H]2CCCN2C(=O)[C@H](Cc2ccc(O)cc2)NC(=O)[C@H](Cc2cnc[nH]2)NC(=O)[C@H](CC(=O)O)NC1=O [Compound 317] ([Mpa]KG[Trp(5-F)][Aib]DHYPC-NH2; linker 1-10 via mXylylene)
0.0001 to 0.1 | CC(=O)N[C@@H](Cc1cnc[nH]1)C(=O)N(C)[C@@H](Cc1ccc(F)cc1)C(=O)N[C@H]1CSCc2cccc(c2)CSC[C@@H](C(N)=O)NC(=O)[C@@H]2CCCN2C(=O)[C@H](Cc2ccc(O)cc2)NC(=O)[C@H](Cc2cnc[nH]2)NC(=O)[C@H](CC(=O)O)NC(=O)[C@H](Cc2c[nH]c3ccc(F)cc23)NC(=O)[C@H](Cc2c[nH]c3ccc(F)cc23)NC(=O)CNC(=O)[C@H](CCCCN)NC1=O [Compound 146] (Ac-H[NMePhe(4-F)]CKG[Trp(5-F)][Trp(5-F)]DHYPC-NH2; linker 3-12 via mXylylene)
1 to 12.1 | C[C@@H]1NC(=O)CCSCc2cccc(c2)CSC[C@@H](C(N)=O)NC(=O)[C@@H]2CCCN2C(=O)[C@H](Cc2ccc(O)cc2)N(C)C(=O)[C@H](Cc2c[nH]cn2)NC(=O)[C@H](CC(=O)O)N(C)C(=O)[C@H](Cc2cn(C)c3ccccc23)N(C)C(=O)[C@H](Cc2c[nH]c3ccccc23)N(C)C(=O)CN(C)C1=O [Compound 259] ([Mpa]A[Sar][NMeW][NMeTrp(1-Me)][NMeD]H[NMeY]PC-NH2; linker 1-10 via mXylylene)
21 to 50 | CCCCCCCCCCCCCCCC(=O)N[C@@H](CCC(=O)N[C@@H](CCC(=O)NCC[C@H](NC(=O)[C@@H]1CSCc2cccc(c2)CSCCC(=O)N[C@@H](CCCCN)C(=O)NCC(=O)N[C@@H](Cc2c[nH]c3ccc(F)cc23)C(=O)N[C@@H](Cc2c[nH]c3ccc(F)cc23)C(=O)N[C@@H](CC(=O)O)C(=O)N[C@@H](Cc2c[nH]cn2)C(=O)N[C@@H](Cc2ccc(O)cc2)C(=O)N2CCC[C@@]2(C)C(=O)N1)C(N)=O)C(=O)O)C(=O)O [Compound 284] ([Mpa]KG[Trp(5-F)][Trp(5-F)]DHY[αMeP]C[Dab]([γGlu-γGlu-Palmitoyl])-NH2; linker 1-10 via mXylylene)
21 to 50 | NCCCC[C@@H]1NC(=O)CCSCc2cccc(c2)CSC[C@@H](C(N)=O)NC(=O)C2(CC2)NC(=O)[C@H](Cc2ccc(O)cc2)NC(=O)[C@H](Cc2c[nH]cn2)NC(=O)[C@H](CC(=O)O)NC(=O)[C@H](Cc2c[nH]c3ccc(F)cc23)NC(=O)[C@H](Cc2c[nH]c3ccc(F)cc23)NC(=O)CNC1=O [Compound 195] ([Mpa]KG[Trp(5-F)][Trp(5-F)]DHY[Ac3c]C-NH2; linker 1-10 via mXylylene)

Compound | IC50 [µM]
Cc1ccc(C[C@@H]2NC(=O)[C@H](Cc3c[nH]cn3)NC(=O)[C@H](CC(=O)O)NC(=O)[C@H](Cc3c[nH]c4ccc(F)cc34)NC(=O)[C@H](Cc3c[nH]c4ccc(F)cc34)NC(=O)[C@@H](C)NC(=O)[C@H](CCCCN)NC(=O)CCSCc3cccc(c3)CSCCNC(=O)[C@]3(C)CCCN3C2=O)cc1 [Compound 299] (cyclo(DH[Phe(4-Me)][αMeP][X4]K[dA][Trp(5-F)][Trp(5-F)])) | 0.1 to 1
NCCCC[C@@H]1NC(=O)CCCCCn2cc(nn2)CCC[C@@H](C(N)=O)NC(=O)[C@@H]2CCCN2C(=O)[C@H](Cc2ccc(O)cc2)NC(=O)[C@H](Cc2c[nH]cn2)NC(=O)[C@H](CC(=O)O)NC(=O)[C@H](Cc2c[nH]c3ccc(F)cc23)NC(=O)[C@H](Cc2c[nH]c3ccc(F)cc23)NC(=O)CNC1=O [Compound 154] | 1 to 12.1
